Measurements taken from patent publication US20260354380A1, “PYRAZOLO PESTICIDAL COMPOUNDS” (BASF SE, priority 2022, published 2026).

Assays:
Type in all cases: in vivo
Heliothis virescens = experiment: Action on Tobacco Budworm (Heliothis virescens); conditions: 800 ppm; egg and larval mortality; 5 days
Method in brief: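 Compounds in 25% DMSO/75% water were sprayed at several concentrations onto insect diet in microtiter wells holding 15-25 eggs, two replications. After 5 days at about 28±1 °C and 80±5% RH, egg and larval mortality was scored visually.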

Plutella xylostella [1] = experiment: Action on Diamond Back Moth (Plutella xylostella), microtiter plates, insect diet, eggs; conditions: 800 ppm; egg and larval mortality; 5 days
Procedure: Example B8: Action on Diamond Back Moth (Plutella xylostella)
For evaluating control of diamond back moth (Plutella xylostella) the test unit consisted of 96-well-microtiter plates containing an insect diet and 15-25 P. xylostella eggs. The compounds or mixtures were formulated using a solution containing 75% water and 25% DMSO. Different concentrations of formulated compounds or mixtures were sprayed onto the insect diet at 5 μl, using a custom-built micro atomizer, at two replications. For experimental mixtures in these tests identical volumes of both mixing partners at the desired concentrations respectively, were mixed together. After application, microtiter plates were incubated at 28±1 °C, 80±5% RH for 5 days. Egg and larval mortality was then visually assessed.

Spodoptera eridania = experiment: Action on Southern Armyworm (Spodoptera eridania), 2nd Instar Larvae; conditions: 300 ppm; 2nd instar larvae; 4 days after treatment
Method in brief: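 Compounds in 50% acetone/water with 0.01% nonionic surfactant sprayed electrostatically onto Lima bean plants at 1st true leaf stage. After drying, 10–11 2nd-instar larvae bagged with each pot, kept about 25 °C, 20–40% RH. Mortality and reduced feeding scored at 4 days vs untreated plants.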

Anthonomus grandis = experiment: Action on Boll Weevil (Anthonomus grandis); conditions: 800 ppm; egg and larval mortality; 5 days
Method in brief: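 Compounds in 75:25 water:DMSO sprayed at several concentrations onto insect diet in microtiter wells holding 5-10 eggs, two replicates. Plates kept 5 days at about 25±1 °C and 75±5% RH; egg and larval mortality scored visually.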

Aedes aegypti = experiment: whole plant or invertebrate; conditions: 800 ppm; larvae; 2 days
Method in brief: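 Freshly hatched larvae (5-15 per well) were held in tap water, and compounds formulated in 25% DMSO/water were sprayed onto diet at several concentrations in duplicate. Larval mortality was scored visually after 2 days at 28±1 °C, 80±5% RH.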

Plutella xylostella [2] = experiment: Action on Diamond Back Moth (Plutella xylostella), cabbage leaf dip, 3rd instar larvae; conditions: 300 ppm; 3rd instar larvae; 72 hours after treatment
Method in brief: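 Cabbage leaves dipped in compound solution (1:1 water:acetone, 0.01% v/v surfactant), air-dried, then infested with ten 3rd-instar larvae in petri dishes on moist filter paper. Mortality scored at 72 h after treatment; feeding damage rated on a 0–100% scale.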

SMILES	mortality in comparison with untreated controls (Heliothis virescens)	mortality in comparison with untreated controls (Plutella xylostella [1])	mortality in comparison with untreated controls (Spodoptera eridania)	mortality in comparison with untreated controls (Anthonomus grandis)	mortality in comparison with untreated controls (Aedes aegypti)	mortality in comparison with untreated controls (Plutella xylostella [2])
Cc1ccc(C(C)C)c(N2C(=O)CSC2=NC(=O)Nc2ccc(-n3cc(NC(=O)c4ccc(S(C)(=O)=O)c(F)c4)c(C)n3)cc2)c1 [Example C-57]	at least 75%	at least 75%				
Cc1ccc(C(C)C)c(NC(=S)NC(=O)Nc2ccc(-n3cc(NC(=O)c4ccc(OC(F)(F)F)cc4)c(C)n3)cc2)c1 [Example C-127]	at least 75%	at least 75%	at least 75%	at least 75%		
Cc1ccc(C(C)C)c(N2C(=O)CSC2=NC(=O)Nc2ccc(-n3cc(NC(=O)c4ccc(C(C)(C)C#N)cc4)c(C)n3)cc2)c1 [Example C-56]	at least 75%	at least 75%	at least 75%			
CNC(=O)c1ccc(C(=O)Nc2cn(-c3ccc(NC(=O)N=C4SCC(=O)N4c4cc(C)ccc4C(C)C)cc3)nc2C)cn1 [Example C-60]		at least 75%				
Cc1ccc(C(C)C)c(N2C(=O)CS/C2=N\C(=O)Nc2ccc(-n3cc(NC(=O)c4ccc(Cl)cc4Cl)c(C)n3)cc2)c1 [Example C-27]	at least 75%	at least 75%	at least 75%	at least 75%		
Cc1ccc(C(C)C)c(N2C(=O)CSC2=NC(=O)Nc2ccc(-n3nc(C)c(NC(=O)c4ccc(Br)c(C#N)c4)c3C)cc2)c1 [Example C-121]		at least 75%	at least 75%	at least 75%	at least 50%	
Cc1ccc(C(C)C)c(N2C(=O)CSC2=NC(=O)Nc2ccc(-n3cc(NC(=O)c4ccc(OC(C)C)cc4)c(C)n3)cc2)c1 [Example C-48]	at least 75%	at least 75%	at least 75%			
Cc1ccc(C(C)C)c(N2C(=O)CSC2=NC(=O)Nc2ccc(-n3cc(NC(=O)c4ccc(C5CCC5)cc4)c(C)n3)cc2)c1 [Example C-58]	at least 75%	at least 75%		at least 75%		
Cc1ccc(C(C)C)c(N2C(=O)CSC2=NC(=O)Nc2ccc(-n3cc(NC(=O)c4ccc(S(C)(=O)=O)cc4)c(C)n3)cc2)c1 [Example C-53]		at least 75%				
Cc1ccc(C(C)C)c(N2C(=O)CSC2=NC(=O)Nc2ccc(-n3cc(NC(=O)c4ccc(N=S(C)(C)=O)cc4)c(C)n3)cc2)c1 [Example C-55]		at least 75%		at least 75%		
Cc1ccc(C(C)C)c(N2C(=O)CSC2=NC(=O)Nc2ccc(-n3cc(NC(=O)c4ccc(C5COC5)cc4)c(C)n3)cc2)c1 [Example C-52]	at least 75%	at least 75%		at least 75%		
Cc1ccc(C(C)C)c(N2C(=O)CSC2=NC(=O)Nc2ccc(-n3nc(C)c(NC(=O)c4ccc(F)c(Cl)c4)c3C)cc2)c1 [Example C-113]	at least 75%	at least 75%		at least 75%	at least 50%	
Cc1ccc(C(C)C)c(N2C(=O)CSC2=NC(=O)Nc2ccc(-n3cc(NC(=O)c4ccc(S(C)(=O)=O)cn4)c(C)n3)cc2)c1 [Example C-38]	at least 75%	at least 75%	at least 75%	at least 75%		
Cc1ccc(C(C)C)c(N2C(=O)CSC2=NC(=O)Nc2ccc(-n3cc(NC(=O)c4cncnc4)c(C)n3)cc2)c1 [Example C-68]	at least 75%	at least 75%	at least 75%	at least 75%		
Cc1ccc(C(C)C)c(N2C(=O)CSC2=NC(=O)Nc2ccc(-n3cc(NC(=O)c4ccc(C(C)(C)C)cc4)c(C)n3)cc2)c1 [Example C-73]		at least 75%				
Cc1ccc(C(C)C)c(N2C(=O)CSC2=NC(=O)Nc2ccc(-n3cc(NC(=O)c4csc(Cl)n4)c(C)n3)cc2)c1 [Example C-43]	at least 75%		at least 75%	at least 75%	at least 50%	at least 75%
Cc1ccc(C(C)C)c(N2C(=O)CS/C2=N\C(=O)Nc2ccc(-n3cc(NC(=O)c4ccc(C#N)cc4Cl)c(C)n3)cc2)c1 [Example C-35]	at least 75%		at least 75%	at least 75%	at least 50%	at least 75%
Cc1ccc(C(C)C)c(N2C(=O)CS/C2=N\C(=O)Nc2ccc(-n3cc(NC(=O)c4cccs4)c(C)n3)cc2)c1 [Example C-95]	at least 75%		at least 75%	at least 75%	at least 50%	at least 75%
Cc1ccc(C(C)C)c(N2C(=O)CS/C2=N\C(=O)Nc2ccc(-n3cc(NC(=O)c4ccc(Br)cc4)c(C)n3)cc2)c1 [Example C-30]	at least 75%		at least 75%	at least 75%	at least 50%	at least 75%
Cc1ccc(C(C)C)c(N2C(=O)CS/C2=N\C(=O)Nc2ccc(-n3nc(C)c(NC(=O)c4ccc(OC(F)(F)F)c(F)c4)c3C)c(F)c2)c1 [Example C-21]	at least 75%		at least 75%	at least 75%	at least 50%	at least 75%
Cc1ccc(C(C)C)c(N2C(=O)CSC2=NC(=O)Nc2ccc(-n3cc(NC(=O)c4ccc(Cl)nc4)c(C)n3)cc2)c1 [Example C-66]	at least 75%	at least 75%		at least 75%	at least 50%	
Cc1ccc(C(C)C)c(N2C(=O)CSC2=NC(=O)Nc2ccc(-n3nc(C)c(NC(=O)c4ccc(C(Cl)Cl)cc4)c3C)cc2)c1 [Example C-122]		at least 75%		at least 75%		
